Among the data in ChEMBL document CHEMBL1136493, “Synthesis and anti-HIV properties of new water-soluble bis-functionalized[60]fullerene derivatives” (Bioorg Med Chem Lett, 2003) are EC50 and CC50 values, retold here.

What all share (details): Homo sapiens
Experiment [1] deals with CCRF-CEM. The experiment in a line: Effective concentration required to inhibit HIV-induced (HIV-1) cytopathicity by 50% in CEM cell cultures. Format: functional, cell-based. Background: Damage to the host cells serves as the signal in cytopathic effect assays.
The test system of experiment [2] is CCRF-CEM. The experiment in a line: Cytostatic concentration required to inhibit CEM cell proliferation by 50%. It counts as functional.
Experiment [3] concerns CCRF-CEM. The experiment in a line: Effective concentration required to inhibit HIV-induced (HIV-2) cytopathicity by 50% in CEM cell cultures. Format: functional, cell-based.

As to `NCCOCCOCCN1CC23C4=c5c6c7c8c9c%10c%11c%12c%13c%14c%15c%16c%17c%18c%19c%20c%21c%22c(c2c%20c2c%20c%23c%24c(c5c7c5c9c7c%11c(c%12%16)c9c%17c(c%192)c%23c9c7c%245)C%203C1)C4C1C=6C2c3c1c-%22c(c-%14c3C%13C%10C82)C%211CN(CCOCCOCCN)CC%15%181` (stereo not given), the EC50 in the experiment on CCRF-CEM [1] and in the experiment with CCRF-CEM [3] was more than 4 µM throughout. The 50% cytotoxic concentration (CC50) (in general, the concentration giving 50% cytotoxicity) in the experiment with CCRF-CEM [2] came to 7.4 µM.

With `NCCOCCOCCN1CC23C4=c5c6c7c8c9c%10c%11c%12c%13c9c9c%14c%15c%16c%17c%18c%19c%20c%21c%22c%23c%24c(c-%11c(c2c%24c2c%11c%24c%25c(c5c5c6c(c8%14)c%15c6c%17c(c%25c56)c5c%18c%21c(c%232)c%245)C%113C1)C4C%107)C%12C%22C%201CN(CCOCCOCCN)CC%131C9C%19%16` (stereo not given), the EC50 with CCRF-CEM [1] and in the experiment on CCRF-CEM [3] was more than 4 µM throughout. Also, in the experiment on CCRF-CEM [2], it took 7.2 µM to reach half-maximal cytotoxicity (CC50).

On to `C[N+]1(CCOCCOCCN)CC23C4=c5c6c7c8c9c%10c%11c%12c%13c%14c%15c%16c%17c%18c%19c%20c%21c%22c(c2c%20c2c%20c%23c%24c(c5c7c5c9c7c%11c(c%12%16)c9c%17c(c%192)c%23c9c7c%245)C%203C1)C4C1C=6C2c3c1c-%22c(c-%14c3C%13C%10C82)C%211C[N+](C)(CCOCCOCCN)CC%15%181` (stereo not given), for which the concentration for a half-maximal effect (EC50) (commonly the concentration giving half of the maximal effect) is 2.6 µM in the experiment on CCRF-CEM [1] and more than 4 µM in the experiment on CCRF-CEM [3]. This compound also came in with a CC50 in the experiment on CCRF-CEM [2] of 13.2 µM.

With `O=C(O)CN(CCOCCOCCN1CC23C4=c5c6c7c8c9c%10c%11c%12c%13c9c9c%14c%15c%16c%17c%18c%19c%20c%21c%22c%23c%24c(c-%11c(c2c%24c2c%11c%24c%25c(c5c5c6c(c8%14)c%15c6c%17c(c%25c56)c5c%18c%21c(c%232)c%245)C%113C1)C4C%107)C%12C%22C%201CN(CCOCCOCCN(CC(=O)O)CC(=O)O)CC%131C9C%19%16)CC(=O)O` (stereo not given), the EC50 is 2.01 µM in the experiment with CCRF-CEM [1] and more than 4 µM in the experiment on CCRF-CEM [3].

Turning to `NCCOCCOCCN1CC23C4=c5c6c7c8c9c%10c%11c%12c%13c%14c%15c%16c%17c%18c%19c%20c%21c%22c%23c%24c(c2c%22c2c%22c%25c%26c(c5c(c6%10)c5c%11c6c%13c(c%14%18)c%10c%19c(c%212)c%25c%10c6c%265)C%223C1)C4C7C1=C%24C(=C%16C2(CN(CCOCCOCCN)CC182)C%15C9%12)C%23C%17%20` (stereo not given), the concentration for a half-maximal effect (EC50) with CCRF-CEM [1] and in the experiment with CCRF-CEM [3] was more than 4 µM in each case. Also, in the experiment with CCRF-CEM [2], the CC50 was 7.63 µM.

`NCCOCCOCCN1CC23C4=C5c6c7c8c9c(c%10c%11c%12c%13c%14c%15c%16c%17c%18c%19c%20c%21c%22c%23c(c6c6c%22c%22c%20c(c%15%19)c%13c(c%129)c%22c86)C5C5C6c8c9c(c-%17c%12c8C5C%23C%21C%12%18)C5c8c-9c(c2c-%10c8C%112CN(CCOCCOCCN)CC%142C%165)C46)C73C1` (stereo not given): the EC50 in the experiment with CCRF-CEM [1] and in the experiment on CCRF-CEM [3] was more than 4 µM each time. This compound registered a CC50 with CCRF-CEM [2] of 9.6 µM.

On to `COCCOCCOCCOC(=O)C1(C(=O)OCCOCCOCCOC)C23C4=c5c6c7c8c9c%10c%11c%12c%13c9c9c%14c%15c%16c%17c%18c%19c%20c%21c%22c%23c%24c(c-%11c(c2c%24c2c%11c%24c%25c(c5c5c6c(c8%14)c%15c6c%17c(c%25c56)c5c%18c%21c(c%232)c%245)C%1113)C4C%107)C%12C%22C%201CN(CCOCCOCCN)CC%131C9C%19%16` (stereo not given), for which the EC50 in the experiment on CCRF-CEM [1] and in the experiment on CCRF-CEM [3] was more than 4 µM in each case.

For `C[N+]1(CCOCCOCCN)CC23C4=c5c6c7c8c9c%10c%11c%12c%13c9c9c%14c%15c%16c%17c%18c%19c%20c%21c%22c%23c%24c(c-%11c(c2c%24c2c%11c%24c%25c(c5c5c6c(c8%14)c%15c6c%17c(c%25c56)c5c%18c%21c(c%232)c%245)C%113C1)C4C%107)C%12C%22C%201C[N+](C)(CCOCCOCCN)CC%131C9C%19%16` (stereo not given), the EC50 in the experiment on CCRF-CEM [1] was 0.4 µM; in the experiment on CCRF-CEM [3], more than 4 µM. Further, the CC50 in the experiment with CCRF-CEM [2] is 4.79 µM.

As to `COCCOCCOCCOC(=O)C1(C(=O)OCCOCCOCCOC)C23C4=C5c6c7c8c9c(c%10c%11c%12c%13c%14c%15c%16c%17c%18c%19c%20c%21c%22c%23c(c6c6c%22c%22c%20c(c%15%19)c%13c(c%129)c%22c86)C5C5C6c8c9c(c-%17c%12c8C5C%23C%21C%12%18)C5c8c-9c(c2c-%10c8C%112CN(CCOCCOCCN)CC%142C%165)C46)C713` (stereo not given), the concentration giving a half-maximal response (EC50) in the experiment on CCRF-CEM [1] and in the experiment on CCRF-CEM [3] was more than 4 µM throughout.

In the case of `C[N+]1(CCOCCOCCN)CC23C4=c5c6c7c8c9c%10c%11c%12c%13c%14c%15c%16c%17c%18c%19c%20c%21c%22c%23c%24c(c2c%22c2c%22c%25c%26c(c5c(c6%10)c5c%11c6c%13c(c%14%18)c%10c%19c(c%212)c%25c%10c6c%265)C%223C1)C4C7c1c-%24c(c-%16c(c1-8)C%15C9%12)C%23C%17%20` (stereo not given), the EC50 with CCRF-CEM [1] and with CCRF-CEM [3] was more than 4 µM each time. The compound also came in with a 50% cytotoxic concentration (CC50) with CCRF-CEM [2] of 44.3 µM.

For `C[N+]1(CCOCCOCCN)CC23C4=c5c6c7c8c9c%10c%11c%12c%13c%14c%15c%16c%17c%18c%19c%20c%21c%22c%23c%24c(c2c%22c2c%22c%25c%26c(c5c(c6%10)c5c%11c6c%13c(c%14%18)c%10c%19c(c%212)c%25c%10c6c%265)C%223C1)C4C7C1=C%24C(=C%16C2(C[N+](C)(CCOCCOCCN)CC182)C%15C9%12)C%23C%17%20` (stereo not given), the results for the half-maximal effective concentration (EC50) in the experiment on CCRF-CEM [1] and in the experiment on CCRF-CEM [3] were 0.96 µM and more than 4 µM, respectively. In addition, it took 3.02 µM to reach half-maximal cytotoxicity in the experiment with CCRF-CEM [2] (CC50).

Regarding `C[N+]1(CCOCCOCCN)CC23C4=C5c6c7c8c9c(c%10c%11c%12c%13c%14c%15c%16c%17c%18c%19c%20c%21c%22c%23c(c6c6c%22c%22c%20c(c%15%19)c%13c(c%129)c%22c86)C5C5C6c8c9c(c-%17c%12c8C5C%23C%21C%12%18)C5c8c-9c(c2c-%10c8C%112C[N+](C)(CCOCCOCCN)CC%142C%165)C46)C73C1` (stereo not given), the EC50 was 1.6 µM in the experiment on CCRF-CEM [1] and more than 4 µM in the experiment on CCRF-CEM [3]. The CC50 with CCRF-CEM [2] was found to be 6.59 µM.

As to `O=C(O)CN(CCOCCOCCN1CC23C4=C5c6c7c8c9c(c%10c%11c%12c%13c%14c%15c%16c%17c%18c%19c%20c%21c%22c%23c(c6c6c%22c%22c%20c(c%15%19)c%13c(c%129)c%22c86)C5C5C6c8c9c(c-%17c%12c8C5C%23C%21C%12%18)C5c8c-9c(c2c-%10c8C%112CN(CCOCCOCCN(CC(=O)O)CC(=O)O)CC%142C%165)C46)C73C1)CC(=O)O` (stereo not given), the half-maximal effective concentration (EC50) in the experiment with CCRF-CEM [1] and in the experiment with CCRF-CEM [3] was more than 4 µM each time.
